The values that follow come from PMC7144330, “2-Thiopyrimidine/chalcone hybrids: design, synthesis, ADMET prediction, and anticancer evaluation as STAT3/STAT5a inhibitors” (Journal of Enzyme Inhibition and Medicinal Chemistry, 2020).

The test system of one data set is HT-29. Briefly: MTT cytotoxic assay, colon HT-29 cell line. The class given is cell-based. To be noted: Homo sapiens, read-out: (IC50 μM)±SD HT-29. The procedure: (§1) To investigate cytotoxic activity of the final target compounds 9a–r, MTT assay was performed. Three different cell lines were used, leukaemia (K-562), breast (MCF-7) and colon (HT-29) cell lines. Cisplatin and erlotinib were the reference drugs used in this study.
(§2) All target compounds 9a–r were screened against three different cancer cell lines, leukaemia (K-562), breast (MCF-7), and colon (HT-29). MTT assay was used. Both cisplatin and erlotinib were used as the reference drugs. Cytotoxicity results are recorded in Table 1.
A general note: Formazan colour is commonly taken as a measure of viable cells.

The target of data set [1] is T1, STAT3 (Homo sapiens, UniProt P40763).
T1 construct: endogenous in cells; host or cells: K-562 and MCF-7 cells (nuclear extracts)
Briefly: TransAM STAT3 activation assay on nuclear extracts of treated cells. The class given is cell-based. To be noted: 24 h, read-out: Inhibition IC50 (µM) STAT3. How it is done:
(§3) Both K-562 and MCF-7 cell lines were seeded overnight in plates, then 10 µM of test compounds (9a and 9r for MCF-7 cells; 9d, 9f, and 9n for K-562 cells) or reference drug pacritinib was added for 24 h. A nuclear extract kit was used to extract nuclear fractions from treated cells using the manufacture’s procedure. STAT3 and STAT5a activations were analysed using the collected nuclear extracts (20 µg) through TransAM STAT3 and STAT5a activation assay guided by the manufacture’s protocol. The obtained results were expressed in the form of mean ± SD. Each experiment was done in triplicate.
(§4) Pacritinib, an inhibitor for both STAT3 and STAT5a[49] was used in this study as a reference drug.

The test system of a further data set is K-562. Briefly: MTT cytotoxic assay, leukaemia K-562 cell line. The data set is classed as cell-based. The settings on record: Homo sapiens, K562, read-out: (IC50 μM)±SD K-562. The procedure: as §1, §2
In a further data set the target is T2, STAT5a (Homo sapiens, UniProt P42229).
T2 construct: endogenous in cells; host or cells: K-562 and MCF-7 cells (nuclear extracts)
T2 sequence (P42229 1-794): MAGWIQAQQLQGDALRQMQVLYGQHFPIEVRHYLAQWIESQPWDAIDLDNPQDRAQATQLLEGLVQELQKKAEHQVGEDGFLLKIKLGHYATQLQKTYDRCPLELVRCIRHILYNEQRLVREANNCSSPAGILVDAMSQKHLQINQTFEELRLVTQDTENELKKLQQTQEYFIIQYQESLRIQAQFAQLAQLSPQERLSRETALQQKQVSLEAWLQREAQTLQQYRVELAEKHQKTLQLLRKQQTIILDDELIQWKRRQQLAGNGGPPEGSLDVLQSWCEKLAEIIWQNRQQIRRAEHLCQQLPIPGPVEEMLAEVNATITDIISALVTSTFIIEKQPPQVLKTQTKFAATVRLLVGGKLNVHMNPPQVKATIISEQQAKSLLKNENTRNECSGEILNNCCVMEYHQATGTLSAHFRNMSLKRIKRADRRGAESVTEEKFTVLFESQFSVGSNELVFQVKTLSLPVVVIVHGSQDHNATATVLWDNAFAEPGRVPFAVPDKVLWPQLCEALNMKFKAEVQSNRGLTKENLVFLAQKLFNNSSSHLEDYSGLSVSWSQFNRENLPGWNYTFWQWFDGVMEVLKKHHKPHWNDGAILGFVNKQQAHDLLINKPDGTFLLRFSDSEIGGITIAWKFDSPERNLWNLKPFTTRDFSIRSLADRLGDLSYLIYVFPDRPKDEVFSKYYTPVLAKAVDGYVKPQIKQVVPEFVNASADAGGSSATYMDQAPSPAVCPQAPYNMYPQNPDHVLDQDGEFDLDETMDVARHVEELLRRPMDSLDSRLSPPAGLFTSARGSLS
In words: TransAM STAT5a activation assay on nuclear extracts of treated cells. The data set is classed as cell-based. To be noted: 24 h, read-out: Inhibition IC50 (µM) STAT5a. How it is done: as §3, §4

A short description of a further data set: in vitro. To be noted: human.
For the next data set, the system named is MCF-7. Briefly: MTT cytotoxic assay, breast MCF-7 cell line. The class given is cell-based, human. To be noted: Homo sapiens, MCF7, read-out: (IC50 μM)±SD MCF-7. The procedure: as §1, §2
The subject of the next data set is human leukaemia cells. The arrangement: method as in earlier work. To be noted: read-out: CC50, cytotoxic activity; cited from earlier work.
The subject of data set [2] is STAT3. The arrangement: method as in PMID 20067773. The settings on record: myeloma cancer cells; read-out: EC50, inhibition of STAT3 function; cited from earlier work.
The test system of data set [3] is STAT3. Details: method as in PMID 20067773. The settings on record: breast cancer cells; read-out: EC50, inhibition of STAT3 function; cited from earlier work.

Read-outs that look alike come from different tables or passages of the source.

T1 sequence (P40763 whole entry): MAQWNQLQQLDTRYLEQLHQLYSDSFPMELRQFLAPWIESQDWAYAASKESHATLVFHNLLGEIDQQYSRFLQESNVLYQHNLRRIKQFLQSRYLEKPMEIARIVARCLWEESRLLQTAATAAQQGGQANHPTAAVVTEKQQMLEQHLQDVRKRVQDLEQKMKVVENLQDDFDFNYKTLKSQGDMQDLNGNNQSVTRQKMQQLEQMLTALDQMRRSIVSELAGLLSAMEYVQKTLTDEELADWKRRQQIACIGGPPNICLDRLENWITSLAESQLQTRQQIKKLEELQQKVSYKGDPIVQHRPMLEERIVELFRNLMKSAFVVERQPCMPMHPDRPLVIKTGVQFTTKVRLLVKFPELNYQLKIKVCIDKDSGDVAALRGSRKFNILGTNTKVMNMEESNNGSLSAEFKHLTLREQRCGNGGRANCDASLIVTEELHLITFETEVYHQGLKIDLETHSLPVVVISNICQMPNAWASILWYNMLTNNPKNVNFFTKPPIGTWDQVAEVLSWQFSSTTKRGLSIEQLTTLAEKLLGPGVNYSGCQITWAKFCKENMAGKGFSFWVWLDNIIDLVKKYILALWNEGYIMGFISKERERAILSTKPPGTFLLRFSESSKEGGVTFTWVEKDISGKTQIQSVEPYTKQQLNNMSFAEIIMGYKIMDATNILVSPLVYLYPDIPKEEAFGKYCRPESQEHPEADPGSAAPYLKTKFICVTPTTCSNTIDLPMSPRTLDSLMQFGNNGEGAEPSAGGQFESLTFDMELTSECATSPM

Usually IC50 stands for the concentration at which inhibition is half-maximal. The melting point is the temperature, or range, at which the solid turns liquid. Consider `COc1ccc(-c2cc(-c3ccc([N+](=O)[O-])cc3)nc(SCC(=O)Nc3ccc(C(=O)/C=C/c4cc(OC)c(OC)c(OC)c4)cc3)n2)cc1` [Compound 9f, (ZE)-2-[4-(4-Methoxyphenyl)-6-(4-nitrophenyl)pyrimidin-2-ylthio]-N-{4-[3-(3,4,5-trimethoxyphenyl)acryloyl]phenyl}acetamide], for which the melting point fell in the range of 254 to 256 °C. For the same molecule, the IC50 in the data set on HT-29 is 9.41 ± 0.43 µM. Further, the IC50 on STAT3 [1] (K562 cells) is 245 ± 11.1 µM. In addition, the IC50 in the data set with K-562 was 1.37 ± 0.03 µM. Besides, the IC50 at STAT5a (K562 cells) came out at 77.7 ± 2.91 µM. For the same molecule, the IC50 in the data set “in vitro” is 29.2 to 40.1 µM. The IC50 in the data set on MCF-7 came out at 5.77 ± 0.22 µM.
What is called CC50 is the concentration at which the toxic effect on the cells reaches its halfway point. On to `Cc1cccc(Nc2ccccc2C(=O)Nc2ccc(C(=O)/C=C/c3ccc(Cl)cc3)cc2)c1C` [chloro-derivative of compound X], for which the CC50 in the data set with human leukaemia cells was 2.17 µM.
`COc1ccc(/C=C/C(=O)c2ccc(NC(=O)CSc3nc(-c4ccc(OC)cc4)cc(-c4ccc([N+](=O)[O-])cc4)n3)cc2)cc1` [Compound 9d, (ZE)-2-[4-(4-Methoxyphenyl)-6-(4-nitrophenyl)pyrimidin-2-ylthio]-N-{4-[3-(4-methoxyphenyl)acryloyl]phenyl}acetamide] displayed a melting point of 183 to 185 °C. Further, the IC50 in the data set with HT-29 was found to be 25.9 ± 1.67 µM. In addition, the IC50 at STAT3 [1] (K562 cells) was 160 ± 4.59 µM. Also, in the data set on K-562, the IC50 came out at 0.77 ± 0.03 µM. Further, the IC50 at STAT5a (K562 cells) stood at 116 ± 4.13 µM. This molecule also returned an IC50 in the data set “in vitro” of 29.2 to 40.1 µM. The IC50 in the data set on MCF-7 came to 14.2 ± 0.74 µM.
As to `Cc1cccc(Nc2ccccc2C(=O)Nc2ccc(C(=O)/C=C/c3ccc(N(C)C)cc3)cc2)c1C` [dimethylamino-derivative of compound X], the CC50 with human leukaemia cells is 2.06 µM.
The EC50 is the concentration that produces a half-maximal response. For `Cc1ccc(S(=O)(=O)N(C)CC(=O)N(Cc2ccc(C3CCCCC3)cc2)c2ccc(C(=O)O)c(O)c2)cc1` [Compound S3I-201.1066], the EC50 in the data set on STAT3 [2] is […]; in the data set with STAT3 [3], […].
`COc1ccc(/C=C/C(=O)c2ccc(NC(=O)CSc3nc(-c4ccc(C)cc4)cc(-c4ccc(OC)cc4)n3)cc2)cc1` [Compound 9a, (ZE)-2-[4-(4-Methoxyphenyl)-6-p-tolylpyrimidin-2-ylthio]-N-{4-[3-(4 methoxyphenyl)acryloyl]phenyl}acetamide]: the melting point is 226 to 228 °C. Moreover, the IC50 in the data set on HT-29 stood at 2.2 ± 0.04 µM. The half-inhibitory concentration (IC50) at STAT3 [1] (MCF7 cells) turned out to be 243 ± 9.24 µM. In addition, in the data set on K-562, the IC50 was determined as 18.4 ± 0.76 µM. On STAT5a (MCF7 cells), the IC50 is 83.8 ± 3.28 µM. The molecule further gave an IC50 in “in vitro” of 17.1 µM. Besides, the IC50 in the data set on MCF-7 worked out at 3.56 ± 0.14 µM.
Regarding `COc1cc(/C=C/C(=O)c2ccc(NC(=O)CSc3nc(-c4ccc(Cl)cc4)cc(-c4ccc(OCCCl)cc4)n3)cc2)cc(OC)c1OC` [Compound 9r], the melting point is 221 to 223 °C. Moreover, the IC50 in the data set on HT-29 was found to be 4.74 ± 0.27 µM. The IC50 on STAT3 [1] (MCF7 cells) turned out to be 149 ± 3.81 µM. In the data set with K-562, the IC50 came to 10.7 ± 0.77 µM. In addition, the 50% inhibitory concentration (IC50) on STAT5a (MCF7 cells) was 63.2 ± 1.57 µM. The molecule further had an IC50 in the data set “in vitro” of 29.2 to 40.1 µM. In addition, the IC50 with MCF-7 worked out at 1.37 ± 0.07 µM.
